tested on: mUCP3; assay: Gene expression in C2C12 muscle cells (TaqMan RT-PCR): mUCP3; format: cell-based, mouse; details: C2C12 cells, 24 h incubation, mRNA
Description: (§1) C2C12 subclone cells were obtained from Dr. Grimaldi, University of Nice, France. C2C12PPd cells were seeded in 24-well-plates with 0.1×106 to 0.15×106 and kept at 37° C. in maintenance medium (DMEM #41965 adjusted to 10% FBS, 2 mM L-Glutamine, 1 mM sodium pyruvate, 100 IU/ml penicillin and 100 μg/ml streptomycin). At 90-95% confluency, cells were washed with 1×PBS and changed to differentiation medium (DMEM #41965 adjusted to 3% FBS, 2 mM Glutamine and 1 mM sodium pyruvate). After 4 days of differentiation, cells were washed with 1×PBS and treated in treatment medium (DMEM #41965 adjusted to 2% BSA, 2 mM Glutamine and 100 IU/ml penicillin and 100 μg/ml streptomycin) with the test compounds. DMSO contents were adjusted to 0.5% final concentration.
(§2) After 24 h incubation with tested compounds, cells were washed with 1×PBS, harvested with 300 μl RLT buffer (Qiagen RNeasy Mini Kit #74106) in QIAshredder (Qiagen 79656) and stored at −20° C.
(§3) Total RNA was extracted using the Qiagen RNeasy Mini Kit, including an in column DNase step (Qiagen #79254) according to the manufacture's protocol. RNA concentration was determined using RiboGreen® RNA quantification assay (Molecular Probes #R11490, Eugene, USA) according to the manufacturer's protocol. 200 ng of the total RNA were subject to first strand cDNA synthesis by reverse transcription using the Omniscript™ RT-kit (Qiagen #205113, Basel, CH) with 10 μM Random Primers (Promega #C1181) according to the manufacturer's instructions. The final volume was adjusted to 400 μl with DEPC-treated water (Ambion, Austin, Tex., USA) and stored at −20° C.
(§4) Quantitative real-time TaqMan RT-PCR, based on the multiplex method, was used to quantify the expression levels of selected genes. In the quantitative TaqMan RT-PCR, 5 μl of the diluted cDNA was added to 20 μl of the reaction mixture, consisting of 12.5 μl TaqMan 2× Master Mix (PE biosystems, Rotkreuz, CH), 300 nM PCR primers (forward and reverse), and 100 nM TaqMan probe for the gene of interest. The reference gene used was 18S rRNA, with primers and probes at 50 nM and 100 nM, respectively. Probes for the gene of interest were labeled with FAM on the 5′ end and with Tamra on the 3′ end. The 18S rRNA probe was labeled with VIC on the 5′ end and with Tamra on the 3′ end. Amplification was performed using an Abi-Prism 7700 Sequence Detector (PE Biosystems, Foster City, Calif., USA) in MicroAmp Optical 96-well reaction plates (PE Biosystems, Foster City, Calif., USA). The PCR amplification program consisted of 2 min at 50° C., 10 min at 95° C., and 40 cycles of 15 sec at 95° C. and 60 sec at 60° C. Threshold CT values were set at 0.05. The baseline start and stop values for the gene of interest were set at 3 and 15, respectively, and for the reference gene (18S rRNA) at 3 and 7, respectively. mRNA abundance was determined using the ΔCT method according to the manufacturer's protocol. Briefly, the ΔCT for the gene of interest was determined as the difference between the CT values for the reference gene and the gene of interest. Then, ΔΔCT was determined as the difference in dCT between the untreated control group and each of the treated groups. The fold induction for the gene of interest (i.e. the amount of mRNA for the gene of interest, normalized to an endogenous reference and relative to a calibrator) was determined as 2-ΔΔCT In graphs data is presented as a percentage.
(§5) Genes in involved in fatty acid β-oxidation and lipid metabolism were checked using real-time RT-PCR.

| SMILES | mUCP3 fold of induction compared to DMSO control |
| --- | --- |
| COc1ccc(C=CC(=O)c2cc(OC)ccc2OC)c(OC)c1 [Compound 3, 3-(2,4-dimethoxyphenyl)-1-(2,5-dimethoxyphenyl)-2-propen-1-one] | 4.73 fold |
| COc1ccc(C(=O)/C=C/c2c(CCN(C)C(C)=O)cc3c(c2OC)OCO3)cc1 [Compound 4] | 5.95 fold |
| COc1ccc(C(=O)C=Cc2ccc(OC)c(OC)c2)cc1 [Compound 6, 3-(3,4-dimethoxyphenyl)-1-(4-methoxyphenyl)-2-propen-1-one] | 1.92 fold |

same assay, conditions: muscle cells

| SMILES | Effect on UCP3 expression (in words) |
| --- | --- |
| COc1ccc(C=CC(=O)c2cc(OC)ccc2OC)c(OC)c1 [Compound 3, 3-(2,4-dimethoxyphenyl)-1-(2,5-dimethoxyphenyl)-2-propen-1-one] | increased UCP3 expression |
| COc1ccc(C(=O)/C=C/c2c(CCN(C)C(C)=O)cc3c(c2OC)OCO3)cc1 [Compound 4] | increased UCP3 expression |
| COc1ccc(C(=O)C=Cc2ccc(OC)c(OC)c2)cc1 [Compound 6, 3-(3,4-dimethoxyphenyl)-1-(4-methoxyphenyl)-2-propen-1-one] | increased UCP3 expression |

tested on: mFABP3; assay: Gene expression in C2C12 muscle cells (TaqMan RT-PCR): mFABP3; format: cell-based, mouse; details: C2C12 cells, 24 h incubation, mRNA
Description: as §1, §2, §3, §4, §5

| SMILES | mFABP3 fold of induction compared to DMSO control |
| --- | --- |
| COc1ccc(C=CC(=O)c2cc(OC)ccc2OC)c(OC)c1 [Compound 3, 3-(2,4-dimethoxyphenyl)-1-(2,5-dimethoxyphenyl)-2-propen-1-one] | 4.76 fold |
| COc1ccc(C(=O)/C=C/c2c(CCN(C)C(C)=O)cc3c(c2OC)OCO3)cc1 [Compound 4] | 6.29 fold |
| COc1ccc(C(=O)C=Cc2cccc(OC(=O)C=Cc3ccccc3)c2)cc1 [Compound 5, 3-phenyl-2-propenoic acid 3-[3-(4-methoxyphenyl)-3-oxo-1-propenyl]phenyl ester] | 1.88 fold |
| COc1ccc(C(=O)C=Cc2ccc(OC)c(OC)c2)cc1 [Compound 6, 3-(3,4-dimethoxyphenyl)-1-(4-methoxyphenyl)-2-propen-1-one] | 5.02 fold |

same assay, conditions: muscle cells

| SMILES | Effect on FABP3 expression (in words) |
| --- | --- |
| COc1ccc(C=CC(=O)c2cc(OC)ccc2OC)c(OC)c1 [Compound 3, 3-(2,4-dimethoxyphenyl)-1-(2,5-dimethoxyphenyl)-2-propen-1-one] | most remarkable effect |
| COc1ccc(C(=O)/C=C/c2c(CCN(C)C(C)=O)cc3c(c2OC)OCO3)cc1 [Compound 4] | most remarkable effect |
| COc1ccc(C(=O)C=Cc2ccc(OC)c(OC)c2)cc1 [Compound 6, 3-(3,4-dimethoxyphenyl)-1-(4-methoxyphenyl)-2-propen-1-one] | most remarkable effect |

tested on: mLPL; assay: Gene expression in C2C12 muscle cells (TaqMan RT-PCR): mLPL; format: cell-based, mouse; details: C2C12 cells, 24 h incubation, mRNA
Description: as §1, §2, §3, §4, §5

| SMILES | mLPL fold of induction compared to DMSO control |
| --- | --- |
| COc1ccc(C=CC(=O)c2cc(OC)ccc2OC)c(OC)c1 [Compound 3, 3-(2,4-dimethoxyphenyl)-1-(2,5-dimethoxyphenyl)-2-propen-1-one] | 3.5 fold |
| COc1ccc(C(=O)/C=C/c2c(CCN(C)C(C)=O)cc3c(c2OC)OCO3)cc1 [Compound 4] | 3.31 fold |
| COc1ccc(C(=O)C=Cc2cccc(OC(=O)C=Cc3ccccc3)c2)cc1 [Compound 5, 3-phenyl-2-propenoic acid 3-[3-(4-methoxyphenyl)-3-oxo-1-propenyl]phenyl ester] | 1.84 fold |
| COc1ccc(C(=O)C=Cc2ccc(OC)c(OC)c2)cc1 [Compound 6, 3-(3,4-dimethoxyphenyl)-1-(4-methoxyphenyl)-2-propen-1-one] | 2.44 fold |

same assay, conditions: muscle cells

| SMILES | Effect on LPL expression (in words) |
| --- | --- |
| COc1ccc(C=CC(=O)c2cc(OC)ccc2OC)c(OC)c1 [Compound 3, 3-(2,4-dimethoxyphenyl)-1-(2,5-dimethoxyphenyl)-2-propen-1-one] | increased moderately |
| COc1ccc(C(=O)/C=C/c2c(CCN(C)C(C)=O)cc3c(c2OC)OCO3)cc1 [Compound 4] | increased moderately |
| COc1ccc(C(=O)C=Cc2ccc(OC)c(OC)c2)cc1 [Compound 6, 3-(3,4-dimethoxyphenyl)-1-(4-methoxyphenyl)-2-propen-1-one] | increased moderately |

tested on: mCD36; assay: Gene expression in C2C12 muscle cells (TaqMan RT-PCR): mCD36; format: cell-based, mouse; details: C2C12 cells, 24 h incubation, mRNA
Description: as §1, §2, §3, §4, §5

| SMILES | mCD36 fold of induction compared to DMSO control |
| --- | --- |
| COc1ccc(C=CC(=O)c2cc(OC)ccc2OC)c(OC)c1 [Compound 3, 3-(2,4-dimethoxyphenyl)-1-(2,5-dimethoxyphenyl)-2-propen-1-one] | 10.16 fold |
| COc1ccc(C(=O)/C=C/c2c(CCN(C)C(C)=O)cc3c(c2OC)OCO3)cc1 [Compound 4] | 15.56 fold |
| COc1ccc(C(=O)C=Cc2cccc(OC(=O)C=Cc3ccccc3)c2)cc1 [Compound 5, 3-phenyl-2-propenoic acid 3-[3-(4-methoxyphenyl)-3-oxo-1-propenyl]phenyl ester] | 1.91 fold |
| COc1ccc(C(=O)C=Cc2ccc(OC)c(OC)c2)cc1 [Compound 6, 3-(3,4-dimethoxyphenyl)-1-(4-methoxyphenyl)-2-propen-1-one] | 22.66 fold |

same assay, conditions: muscle cells

| SMILES | Effect on CD36 expression (in words) |
| --- | --- |
| COc1ccc(C=CC(=O)c2cc(OC)ccc2OC)c(OC)c1 [Compound 3, 3-(2,4-dimethoxyphenyl)-1-(2,5-dimethoxyphenyl)-2-propen-1-one] | most remarkable effect |
| COc1ccc(C(=O)/C=C/c2c(CCN(C)C(C)=O)cc3c(c2OC)OCO3)cc1 [Compound 4] | most remarkable effect |
| COc1ccc(C(=O)C=Cc2ccc(OC)c(OC)c2)cc1 [Compound 6, 3-(3,4-dimethoxyphenyl)-1-(4-methoxyphenyl)-2-propen-1-one] | most remarkable effect |

tested on: mACO1; assay: Gene expression in C2C12 muscle cells (TaqMan RT-PCR): mACO1; format: cell-based, mouse; details: 24 h incubation, mRNA
Description: as §1, §2, §3, §4, §5

| SMILES | mACO1 fold of induction compared to DMSO control |
| --- | --- |
| COc1ccc(C=CC(=O)c2cc(OC)ccc2OC)c(OC)c1 [Compound 3, 3-(2,4-dimethoxyphenyl)-1-(2,5-dimethoxyphenyl)-2-propen-1-one] | 1.54 fold |
| COc1ccc(C(=O)/C=C/c2c(CCN(C)C(C)=O)cc3c(c2OC)OCO3)cc1 [Compound 4] | 1.74 fold |
| COc1ccc(C(=O)C=Cc2cccc(OC(=O)C=Cc3ccccc3)c2)cc1 [Compound 5, 3-phenyl-2-propenoic acid 3-[3-(4-methoxyphenyl)-3-oxo-1-propenyl]phenyl ester] | 1.03 fold |
| COc1ccc(C(=O)C=Cc2ccc(OC)c(OC)c2)cc1 [Compound 6, 3-(3,4-dimethoxyphenyl)-1-(4-methoxyphenyl)-2-propen-1-one] | 1.09 fold |

tested on: mUCP2; assay: Gene expression in C2C12 muscle cells (TaqMan RT-PCR): mUCP2; format: cell-based, mouse; details: 24 h incubation, mRNA
Description: as §1, §2, §3, §4, §5

| SMILES | mUCP2 fold of induction compared to DMSO control |
| --- | --- |
| COc1ccc(C=CC(=O)c2cc(OC)ccc2OC)c(OC)c1 [Compound 3, 3-(2,4-dimethoxyphenyl)-1-(2,5-dimethoxyphenyl)-2-propen-1-one] | 4.25 fold |
| COc1ccc(C(=O)/C=C/c2c(CCN(C)C(C)=O)cc3c(c2OC)OCO3)cc1 [Compound 4] | 7.55 fold |
| COc1ccc(C(=O)C=Cc2cccc(OC(=O)C=Cc3ccccc3)c2)cc1 [Compound 5, 3-phenyl-2-propenoic acid 3-[3-(4-methoxyphenyl)-3-oxo-1-propenyl]phenyl ester] | 2.33 fold |
| COc1ccc(C(=O)C=Cc2ccc(OC)c(OC)c2)cc1 [Compound 6, 3-(3,4-dimethoxyphenyl)-1-(4-methoxyphenyl)-2-propen-1-one] | 6.1 fold |

tested on: mCPT1b; assay: Gene expression in C2C12 muscle cells (TaqMan RT-PCR): mCPT1b; format: cell-based, mouse; details: C2C12 cells, 24 h incubation, mRNA
Description: as §1, §2, §3, §4, §5

| SMILES | mCPT1b fold of induction compared to DMSO control |
| --- | --- |
| COc1ccc(C=CC(=O)c2cc(OC)ccc2OC)c(OC)c1 [Compound 3, 3-(2,4-dimethoxyphenyl)-1-(2,5-dimethoxyphenyl)-2-propen-1-one] | 3.64 fold |
| COc1ccc(C(=O)/C=C/c2c(CCN(C)C(C)=O)cc3c(c2OC)OCO3)cc1 [Compound 4] | 5.08 fold |
| COc1ccc(C(=O)C=Cc2cccc(OC(=O)C=Cc3ccccc3)c2)cc1 [Compound 5, 3-phenyl-2-propenoic acid 3-[3-(4-methoxyphenyl)-3-oxo-1-propenyl]phenyl ester] | 4.19 fold |
| COc1ccc(C(=O)C=Cc2ccc(OC)c(OC)c2)cc1 [Compound 6, 3-(3,4-dimethoxyphenyl)-1-(4-methoxyphenyl)-2-propen-1-one] | 1.62 fold |

same assay, conditions: muscle cells

| SMILES | Effect on CPT1b expression (in words) |
| --- | --- |
| COc1ccc(C=CC(=O)c2cc(OC)ccc2OC)c(OC)c1 [Compound 3, 3-(2,4-dimethoxyphenyl)-1-(2,5-dimethoxyphenyl)-2-propen-1-one] | induced |
| COc1ccc(C(=O)/C=C/c2c(CCN(C)C(C)=O)cc3c(c2OC)OCO3)cc1 [Compound 4] | induced |
| COc1ccc(C(=O)C=Cc2cccc(OC(=O)C=Cc3ccccc3)c2)cc1 [Compound 5, 3-phenyl-2-propenoic acid 3-[3-(4-methoxyphenyl)-3-oxo-1-propenyl]phenyl ester] | induced |

Reference: patent US20100041746A1, “NOVEL USE OF ORGANIC COMPOUNDS” (priority 2006, published 2010)
